In paper PMC5325082 (Molecular Pharmacology, 2017):

Columns and labels:
[1] = biological target: chicken α9α10 nAChR (wild type) (Gallus gallus, UniProt Q9I8C7+Q9PTS8); assay: ACh-evoked currents, two-electrode voltage clamp in Xenopus laevis oocytes, wild-type receptor; format: cell-based
Source text: cDNAs encoding Gallus gallus (chick) or Rattus norvegicus (rat) α9 and α10 nAChR subunits were subcloned into a modified pGEMHE vector for expression studies in Xenopus laevis oocytes. Capped cRNAs were in vitro transcribed from linearized plasmid DNA templates using RiboMAX Large Scale RNA Production System (Promega, Madison, WI). Mutant subunits were produced using Quick Change XL II kit (Stratagene, La Jolla, CA). Amino acid sequences of rat and chicken α9, α10, and Torpedo α1 subunits were aligned using ClustalW (EMBL-EBI, Wellcome Genome Campus, Hinxton, Cambridgeshire). Residues were numbered according to the corresponding Torpedo α1 subunit mature protein ([Karlin, 2002]).
The maintenance of Xenopus laevis and the preparation and cRNA injection of stage V and VI oocytes have been described in detail elsewhere ([Verbitsky et al., 2000]). Typically, oocytes were injected with 50 nl of RNase-free water containing 0.01–1.0 ng of cRNA (at a 1:1 molar ratio when pairwise combined) and maintained in Barth’s solution at 18°C. […] Data were analyzed using Clampfit from the pClamp 6.1 software (Molecular Devices, Sunnyvale, CA). […]
Concentration-response curves were normalized to the maximal agonist response in each oocyte. […] Data were analyzed using Clampfit from the pClamp 6.1 software.

[2] = system: Aplysia californica AChBP, CC mutant; conditions: does not abolish ACh binding; ref Hansen and Taylor, 2007; cited from earlier work
α9χα10χW55T = biological target: T1, α9χα10χW55T (UniProt P23979+P43144+Q9JLB5, L231I/L232I/W81T); assay: [3H]-α-BTX radioligand binding, membranes of transfected tsA201 cells; set-up: species or system rat; conditions: ACh 1 mM alone vs standard mixture of nonradioactive ligands
T1 construct: containing the extracellular N-terminal domain of the α9 or α10 subunit fused to the transmembrane and intracellular domain of the mouse 5-HT3A subunit; mouse 5-HT3A subunit transmembrane and intracellular domain (fusion partner); expressed in transfected cells; host or cells: tsA201 (derived from human embryonic kidney 293), transient transfection; membrane preparations
T1 sequence (P23979 whole entry, looked up, stated change not applied, the tested form may be a part): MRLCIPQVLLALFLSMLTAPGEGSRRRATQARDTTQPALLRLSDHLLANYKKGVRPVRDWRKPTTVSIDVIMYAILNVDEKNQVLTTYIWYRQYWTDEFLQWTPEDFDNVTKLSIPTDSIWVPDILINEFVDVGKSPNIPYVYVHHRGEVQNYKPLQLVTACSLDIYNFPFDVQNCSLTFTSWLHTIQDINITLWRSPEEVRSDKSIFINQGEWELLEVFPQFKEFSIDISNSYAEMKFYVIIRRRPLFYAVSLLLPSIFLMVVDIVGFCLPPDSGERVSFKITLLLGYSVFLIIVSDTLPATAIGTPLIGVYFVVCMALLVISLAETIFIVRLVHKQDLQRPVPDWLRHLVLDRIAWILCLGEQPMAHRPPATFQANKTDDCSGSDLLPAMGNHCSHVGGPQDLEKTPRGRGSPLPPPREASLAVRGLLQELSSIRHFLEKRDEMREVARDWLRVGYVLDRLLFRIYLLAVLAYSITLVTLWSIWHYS
T1 sequence (P43144 whole entry, looked up, stated change not applied, the tested form may be a part): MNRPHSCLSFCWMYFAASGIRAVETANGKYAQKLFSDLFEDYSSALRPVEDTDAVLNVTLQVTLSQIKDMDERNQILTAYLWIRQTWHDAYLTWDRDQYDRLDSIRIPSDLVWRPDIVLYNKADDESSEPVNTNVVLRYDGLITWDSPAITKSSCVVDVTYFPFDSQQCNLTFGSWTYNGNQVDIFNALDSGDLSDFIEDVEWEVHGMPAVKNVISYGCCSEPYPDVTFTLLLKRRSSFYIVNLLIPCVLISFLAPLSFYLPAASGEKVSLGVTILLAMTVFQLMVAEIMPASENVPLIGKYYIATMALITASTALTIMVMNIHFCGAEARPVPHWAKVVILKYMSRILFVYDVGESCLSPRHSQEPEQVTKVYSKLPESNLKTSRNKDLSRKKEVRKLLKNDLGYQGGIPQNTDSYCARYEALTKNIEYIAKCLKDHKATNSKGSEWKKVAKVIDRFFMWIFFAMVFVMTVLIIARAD
T1 sequence (Q9JLB5 whole entry, looked up, stated change not applied, the tested form may be a part): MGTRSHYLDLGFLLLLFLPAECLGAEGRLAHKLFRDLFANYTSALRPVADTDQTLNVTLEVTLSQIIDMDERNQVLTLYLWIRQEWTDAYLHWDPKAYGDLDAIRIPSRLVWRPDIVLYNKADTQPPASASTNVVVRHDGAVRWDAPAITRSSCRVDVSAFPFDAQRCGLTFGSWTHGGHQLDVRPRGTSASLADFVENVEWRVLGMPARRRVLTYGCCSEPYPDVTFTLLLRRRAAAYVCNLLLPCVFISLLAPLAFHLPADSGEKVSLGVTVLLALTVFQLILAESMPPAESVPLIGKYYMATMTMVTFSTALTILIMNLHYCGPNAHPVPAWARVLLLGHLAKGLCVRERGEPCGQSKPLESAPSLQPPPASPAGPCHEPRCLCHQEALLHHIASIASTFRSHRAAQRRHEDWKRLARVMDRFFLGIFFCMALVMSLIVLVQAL
Protocol: (§1) Chimeric subunit cDNAs containing the extracellular N-terminal domain of the α9 or α10 subunit fused to the transmembrane and intracellular domain of the mouse 5-HT3A subunit have been described previously ([Baker et al., 2004]). The mammalian cell line tsA201 (derived from the human embryonic kidney 293 cell line) was obtained from Dr. William Green (University of Chicago, Chicago). Cells were cultured in Dulbecco’s modified Eagle’s medium (Invitrogen, Paisley, United Kingdom) containing 2 mM L-GlutaMAX (Invitrogen) plus 10% heat-inactivated fetal calf serum (Sigma, Poole, United Kingdom) with penicillin (100 U/ml) and streptomycin (100 µg/ml) and were maintained in a humidified incubator containing 5% CO2 at 37°C. Cells were transiently transfected using Effectene transfection reagent (QIAGEN, Crawley, United Kingdom) according to the manufacturer’s instructions. In all cases, cells were transfected overnight and assayed for expression approximately 40–48 hours after transfection. To ensure that the levels of radioligand binding were not influenced by differences in the amount of subunit cDNA expressed, the amount of each subunit plasmid DNA and also the total amount of plasmid DNA were kept constant when subunits were expressed singly and in combination. This was achieved by the inclusion of empty plasmid expression vector when single subunits were transfected.
(§2) Binding studies with [^3H]-α-bungarotoxin (α-BTX) in cell membrane preparations were performed essentially as described previously ([Lansdell and Millar, 2000]; [Harkness and Millar, 2002]). Membranes (typically, 10–100 µg of protein) were incubated with radioligand (final concentration 20 nM) for 150 minutes at 4°C in a total volume of 300 µl in the presence of protease inhibitors leupeptin (2 µg/ml) and pepstatin (1 µg/ml). Our standard protocol for determining nonspecific binding was the addition of 1 mM carbachol, 1 mM nicotine, and 10 µM methyllycaconitine to triplicate samples. […] In all cases the levels of specific binding were determined by subtracting the level of nonspecific binding from the total binding (both of which were determined in triplicate). The data were determined as means of three independent experiments, each performed in triplicate. Radioligand binding was assayed by filtration onto 0.5% polyethylenimine-presoaked Whatman GF/B filters (Sigma-Aldrich, Dorset, England) followed by rapid washing (typically, five washes, each of 4 ml) with ice-cold 10 mM phosphate buffer using a Brandel cell harvester, and radioactivity was determined by scintillation counting. […] Protein concentrations were determined using bovine serum albumin standards (Bio-Rad, Hercules, CA).

[3] = biological target: T2, α9χα10χ (α9 and α10 extracellular domains fused to 5-HT3A) (UniProt P23979+P43144+Q9JLB5, L231I/L232I); assay: as above; set-up: species or system rat; conditions: ACh 1 mM alone vs standard mixture of nonradioactive ligands
T2 construct: the extracellular N-terminal domain of the α9 or α10 subunit; expressed in transfected cells; host or cells: tsA201 cells (HEK293-derived), membrane preparation
T2 sequence (P23979 whole entry, looked up, the tested form may be a part): as the sequence (P23979 whole entry, looked up, stated change not applied, the tested form may be a part) above
T2 sequence (P43144 whole entry, looked up, stated change not applied, the tested form may be a part): as the sequence (P43144 whole entry, looked up, stated change not applied, the tested form may be a part) above
T2 sequence (Q9JLB5 whole entry, looked up, stated change not applied, the tested form may be a part): as the sequence (Q9JLB5 whole entry, looked up, stated change not applied, the tested form may be a part) above
Protocol: as §1, §2

Sequence of chicken α9α10 nAChR (wild type) (Q9I8C7 27-452): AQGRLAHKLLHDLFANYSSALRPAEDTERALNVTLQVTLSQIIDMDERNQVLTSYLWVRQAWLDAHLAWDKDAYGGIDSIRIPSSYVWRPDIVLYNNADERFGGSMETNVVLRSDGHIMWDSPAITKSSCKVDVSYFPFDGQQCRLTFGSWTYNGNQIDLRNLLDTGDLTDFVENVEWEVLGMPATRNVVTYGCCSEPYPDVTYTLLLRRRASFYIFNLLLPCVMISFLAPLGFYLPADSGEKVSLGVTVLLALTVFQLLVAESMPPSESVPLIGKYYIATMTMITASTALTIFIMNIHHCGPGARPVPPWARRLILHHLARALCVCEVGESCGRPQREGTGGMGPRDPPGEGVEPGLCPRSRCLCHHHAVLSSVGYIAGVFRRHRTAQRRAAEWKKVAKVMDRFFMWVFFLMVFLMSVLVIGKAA
Sequence of chicken α9α10 nAChR (wild type) (Q9PTS8 28-484): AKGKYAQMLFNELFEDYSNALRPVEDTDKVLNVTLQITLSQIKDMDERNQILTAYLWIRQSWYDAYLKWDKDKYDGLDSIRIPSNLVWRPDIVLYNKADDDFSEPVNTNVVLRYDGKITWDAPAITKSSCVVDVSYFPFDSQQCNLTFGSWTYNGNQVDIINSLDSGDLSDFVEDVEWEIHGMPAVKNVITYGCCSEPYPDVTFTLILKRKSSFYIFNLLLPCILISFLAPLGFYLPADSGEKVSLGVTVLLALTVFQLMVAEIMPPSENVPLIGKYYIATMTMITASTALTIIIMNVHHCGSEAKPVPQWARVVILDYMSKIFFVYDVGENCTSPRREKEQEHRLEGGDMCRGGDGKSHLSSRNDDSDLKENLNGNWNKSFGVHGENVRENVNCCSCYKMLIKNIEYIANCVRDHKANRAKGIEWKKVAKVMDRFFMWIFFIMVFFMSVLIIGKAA

For `CC(=O)OCC[N+](C)(C)C` [ACh, acetylcholine], the EC50 [1] is given as 16 ± 2 µM, the “Imax (maximal evoked current)” value [1] is given as 100 ± 12 nA and the “Decrease in affinity on mutation of the CC” value [2] is given as 10 fold. The “Displacement of bound [3H]-α-BTX by ACh” value (α9χα10χW55T) was “displaced as efficiently with ACh alone as with our standard mixture of nonradioactive competing ligands” and the “Displacement of bound [3H]-α-BTX by ACh” value [3] was “displaced as efficiently with ACh alone as with our standard mixture of nonradioactive competing ligands”.
